Source: patent US20130303509A1, “NAMPT INHIBITORS” (AbbVie Inc., priority 2012, published 2013)

Tested on: PC3 cells
Assay: NAMPT Cell Proliferation Assay
Format: cell-based
Details: Homo sapiens, PC-3, 120 h, 5 days incubation, cell viability by Cell Titer Glo
Procedure, shortened: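 Five-day CellTiter-Glo viability readout in PC3 cells grown in RPMI/10% heat-inactivated FBS. Compounds added after overnight attachment as a 10-fold dilution series, […]. Percent inhibition fitted to sigmoidal dose-response to derive IC50.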

Question: How did the IC50 turn out when `O=C(Nc1ccc(C2CCN(C(=O)CC3CCCCC3)CC2)cc1)C1CN(c2cccnn2)C1` [Example 340, N-{4-[1-(cyclohexylacetyl)piperidin-4-yl]phenyl}-1-(pyridazin-3-yl)azetidine-3-carboxamide] was run?
Answer: 2.42 nM

Question: `Cc1cccc(C(=O)N2CCC(c3ccc(NC(=O)C4CN(c5cccnn5)C4)cc3)CC2)c1` [Example 341, N-{4-[1-(3-methylbenzoyl)piperidin-4-yl]phenyl}-1-(pyridazin-3-yl)azetidine-3-carboxamide] was tested. Which IC50 did it give?
Answer: 1.98 nM

Question: `O=C(Nc1ccc(C2CCN(C(=O)c3ccccc3O)CC2)cc1)C1CN(c2cccnn2)C1` [Example 342, N-{4-[1-(2-hydroxybenzoyl)piperidin-4-yl]phenyl}-1-(pyridazin-3-yl)azetidine-3-carboxamide] was tested. Which IC50 did it give?
Answer: 2.3 nM

Question: With `O=C(Nc1ccc(C2CCN(C(=O)c3cccc(O)c3)CC2)cc1)C1CN(c2cccnn2)C1` [Example 343, N-{4-[1-(3-hydroxybenzoyl)piperidin-4-yl]phenyl}-1-(pyridazin-3-yl)azetidine-3-carboxamide] as the compound, how does the IC50 read?
Answer: 6.53 nM

Question: With `O=C(Nc1ccc(C2CCN(C(=O)c3ccc(O)cc3)CC2)cc1)C1CN(c2cccnn2)C1` [Example 344, N-{4-[1-(4-hydroxybenzoyl)piperidin-4-yl]phenyl}-1-(pyridazin-3-yl)azetidine-3-carboxamide] as the compound, how does the IC50 read?
Answer: 8.9 nM

Question: How did the IC50 turn out when `COc1ccccc1C(=O)N1CCC(c2ccc(NC(=O)C3CN(c4cccnn4)C3)cc2)CC1` [Example 345, N-{4-[1-(2-methoxybenzoyl)piperidin-4-yl]phenyl}-1-(pyridazin-3-yl)azetidine-3-carboxamide] was run?
Answer: 1.99 nM

Question: How did the IC50 turn out when `COc1cccc(C(=O)N2CCC(c3ccc(NC(=O)C4CN(c5cccnn5)C4)cc3)CC2)c1` [Example 346, N-{4-[1-(3-methoxybenzoyl)piperidin-4-yl]phenyl}-1-(pyridazin-3-yl)azetidine-3-carboxamide] was run?
Answer: 3.8 nM

Question: Which IC50 does the source give for `COc1ccc(C(=O)N2CCC(c3ccc(NC(=O)C4CN(c5cccnn5)C4)cc3)CC2)cc1` [Example 347, N-{4-[1-(4-methoxybenzoyl)piperidin-4-yl]phenyl}-1-(pyridazin-3-yl)azetidine-3-carboxamide] here?
Answer: 8.06 nM

Question: For `O=C(Nc1ccc(C2CCN(C(=O)c3cccc(F)c3)CC2)cc1)C1CN(c2cccnn2)C1` [Example 348, N-{4-[1-(3-fluorobenzoyl)piperidin-4-yl]phenyl}-1-(pyridazin-3-yl)azetidine-3-carboxamide], which IC50 is on record?
Answer: 2 nM

Question: How did the IC50 turn out when `O=C(Nc1ccc(C2CCN(C(=O)c3ccc(F)cc3)CC2)cc1)C1CN(c2cccnn2)C1` [Example 349, N-{4-[1-(4-fluorobenzoyl)piperidin-4-yl]phenyl}-1-(pyridazin-3-yl)azetidine-3-carboxamide] was run?
Answer: 7.28 nM

Question: How did the IC50 turn out when `O=C(Nc1ccc(C2CCN(C(=O)c3ccccc3Cl)CC2)cc1)C1CN(c2cccnn2)C1` [Example 350, N-{4-[1-(2-chlorobenzoyl)piperidin-4-yl]phenyl}-1-(pyridazin-3-yl)azetidine-3-carboxamide] was run?
Answer: 0.75 nM

Question: With `O=C(Nc1ccc(C2CCN(C(=O)c3cccc(Cl)c3)CC2)cc1)C1CN(c2cccnn2)C1` [Example 351, N-{4-[1-(3-chlorobenzoyl)piperidin-4-yl]phenyl}-1-(pyridazin-3-yl)azetidine-3-carboxamide] as the compound, how does the IC50 read?
Answer: 2.36 nM

Question: For `N#Cc1cccc(C(=O)N2CCC(c3ccc(NC(=O)C4CN(c5cccnn5)C4)cc3)CC2)c1` [Example 352, N-{4-[1-(3-cyanobenzoyl)piperidin-4-yl]phenyl}-1-(pyridazin-3-yl)azetidine-3-carboxamide], which IC50 is on record?
Answer: 8.88 nM

Question: How did the IC50 turn out when `N#Cc1ccc(C(=O)N2CCC(c3ccc(NC(=O)C4CN(c5cccnn5)C4)cc3)CC2)cc1` [Example 353, N-{4-[1-(4-cyanobenzoyl)piperidin-4-yl]phenyl}-1-(pyridazin-3-yl)azetidine-3-carboxamide] was run?
Answer: 7.15 nM

Question: `O=C(Nc1ccc(C2CCN(C(=O)c3cccc(C(F)(F)F)c3)CC2)cc1)C1CN(c2cccnn2)C1` [Example 354, 1-(pyridazin-3-yl)-N-(4-{1-[3-(trifluoromethyl)benzoyl]piperidin-4-yl}phenyl)azetidine-3-carboxamide] was tested. Which IC50 did it give?
Answer: 7.51 nM

Question: `O=C(Nc1ccc(C2CCN(C(=O)c3ccc(C(F)(F)F)cc3)CC2)cc1)C1CN(c2cccnn2)C1` [Example 355, 1-(pyridazin-3-yl)-N-(4-{1-[4-(trifluoromethyl)benzoyl]piperidin-4-yl}phenyl)azetidine-3-carboxamide] was tested. Which IC50 did it give?
Answer: 9.79 nM

Question: Which IC50 does the source give for `O=C(Nc1ccc(C2CCN(C(=O)c3cccc(OC(F)(F)F)c3)CC2)cc1)C1CN(c2cccnn2)C1` [Example 356, 1-(pyridazin-3-yl)-N-(4-{1-[3-(trifluoromethoxy)benzoyl]piperidin-4-yl}phenyl)azetidine-3-carboxamide] here?
Answer: 9.09 nM

Question: Which IC50 does the source give for `Cc1cccc(C(=O)N2CCC(c3ccc(NC(=O)C4CN(c5cccnn5)C4)cc3)CC2)c1C` [Example 357, N-{4-[1-(2,3-dimethylbenzoyl)piperidin-4-yl]phenyl}-1-(pyridazin-3-yl)azetidine-3-carboxamide] here?
Answer: 1.47 nM

Question: `Cc1ccc(C(=O)N2CCC(c3ccc(NC(=O)C4CN(c5cccnn5)C4)cc3)CC2)c(C)c1` [Example 358, N-{4-[1-(2,4-dimethylbenzoyl)piperidin-4-yl]phenyl}-1-(pyridazin-3-yl)azetidine-3-carboxamide] was tested. Which IC50 did it give?
Answer: 1.86 nM

Question: For `Cc1ccc(C)c(C(=O)N2CCC(c3ccc(NC(=O)C4CN(c5cccnn5)C4)cc3)CC2)c1` [Example 359, N-{4-[1-(2,5-dimethylbenzoyl)piperidin-4-yl]phenyl}-1-(pyridazin-3-yl)azetidine-3-carboxamide], which IC50 is on record?
Answer: 1.77 nM

Question: For `Cc1ccc(C(=O)N2CCC(c3ccc(NC(=O)C4CN(c5cccnn5)C4)cc3)CC2)cc1C` [Example 360, N-{4-[1-(3,4-dimethylbenzoyl)piperidin-4-yl]phenyl}-1-(pyridazin-3-yl)azetidine-3-carboxamide], which IC50 is on record?
Answer: 2.35 nM

Question: For `Cc1cc(C)cc(C(=O)N2CCC(c3ccc(NC(=O)C4CN(c5cccnn5)C4)cc3)CC2)c1` [Example 361, N-{4-[1-(3,5-dimethylbenzoyl)piperidin-4-yl]phenyl}-1-(pyridazin-3-yl)azetidine-3-carboxamide], which IC50 is on record?
Answer: 2.77 nM

Question: For `O=C(Nc1ccc(C2CCN(C(=O)c3ccc(Cl)cc3Cl)CC2)cc1)C1CN(c2cccnn2)C1` [Example 362, N-{4-[1-(2,4-dichlorobenzoyl)piperidin-4-yl]phenyl}-1-(pyridazin-3-yl)azetidine-3-carboxamide], which IC50 is on record?
Answer: 2.61 nM

Question: Which IC50 does the source give for `O=C(Nc1ccc(C2CCN(C(=O)c3cc(Cl)ccc3Cl)CC2)cc1)C1CN(c2cccnn2)C1` [Example 363, N-{4-[1-(2,5-dichlorobenzoyl)piperidin-4-yl]phenyl}-1-(pyridazin-3-yl)azetidine-3-carboxamide] here?
Answer: 5.6 nM

Question: For `O=C(Nc1ccc(C2CCN(C(=O)c3ccc(Cl)c(Cl)c3)CC2)cc1)C1CN(c2cccnn2)C1` [Example 364, N-{4-[1-(3,4-dichlorobenzoyl)piperidin-4-yl]phenyl}-1-(pyridazin-3-yl)azetidine-3-carboxamide], which IC50 is on record?
Answer: 8.63 nM

Question: With `O=C(Nc1ccc(C2CCN(C(=O)c3cc(Cl)cc(Cl)c3)CC2)cc1)C1CN(c2cccnn2)C1` [Example 365, N-{4-[1-(3,5-dichlorobenzoyl)piperidin-4-yl]phenyl}-1-(pyridazin-3-yl)azetidine-3-carboxamide] as the compound, how does the IC50 read?
Answer: 7.84 nM
